The values below come from US20240194290A1, “HIDDEN ANTIBIOTICS IN THE HUMAN PROTEOME” (THE TRUSTEES OF THE UNIVERSITY OF PENNSYLVANIA, priority 2021, published 2024).

In test [1] the test system is Gram-negative gut commensals (A. muciniphila and Bacteroidetes species). Kind of test: Antibacterial assay against Gram-negative gut commensals. In kind it is cell-based. From the text: The 13 most abundant members of the human gut microbiota^15 were exposed to increasing concentrations of the peptides. Species from four different phyla were used to determine susceptibility to the encrypted peptides: Akkermansia muciniphila (Verrucomicrobia); Bacteroides fragilis, Bacteroides thetaiotaomicron, Bacteroides vulgatus, Bacteroides uniformis, Bacteroides eggerthi, Parabacteroidetes distasonis, and Prevotella copri (Bacteroidetes); Collinsella aerofaciens (Actinobacteria); and Clostridium scindens and Clostridium spiroforme (Firmicutes).
Methods: Bacterial strains and media. […] Minimum inhibitory concentrations (MICs) of peptides were determined using the broth microdilution technique in LB, NB and supplemented BHI with an initial inoculum of 5×10^6 cells in nontreated polystyrene microtiter plates (Corning, USA). […]

Test [2] concerns A. baumannii ATCC19606. Description: Skin abscess infection mouse model. The settings on record: for anti-infective activity (FIG. 4B): 25 μmol L^−1, A. baumannii ATCC19606; for reduction of bacterial load / bacterial counts: mice, single dose 25 μmol L^−1 to infected area, A. baumannii. It is filed as in vivo, Acinetobacter baumannii. From the text:
(§1) FIG. 4. Anti-infective activity and synergistic interactions of encrypted peptides in vivo. (FIG. 4A) Schematic of the skin abscess mouse model used to assess the anti-infective activity of selected encrypted peptides from plasma proteins. […] (FIG. 4C) Mouse weight was monitored throughout the experiment (2 days) to rule out potential toxic effects of the encrypted peptides. (FIG. 4D) Schematic of the neutropenic thigh infection mouse model used to assess the anti-infective activity of selected encrypted peptides from plasma proteins. […] (FIG. 4F) Mouse weight was monitored throughout the experiment (8 days) to rule out potential toxic effects of the encrypted peptides.
To test whether the peptides retain their antimicrobial activity in a complex living system, their properties in two mouse models were assessed. […] Since these peptides are mostly found in plasma, a relevant skin abscess mouse model was used to test their anti-infective activity (FIG. 4A). Mice were infected with bacterial loads of 10^5 and 10^6 cells in 20 μL of the clinically relevant Gram-negative pathogens P. aeruginosa and A. baumannii, respectively (FIG. 4B). […] In order to validate the synergistic effects obtained in vitro (FIG. 3D and FIG. 9), infected mice were treated with combinations of encrypted peptides (FIG. 4B). […] No damage or deleterious effects exerted by the peptides were detected in the mice in any of our experiments.
(§2) Methods: Skin abscess infection mouse model. A. baumannii ATCC19606 and P. aeruginosa strain PAO1 were used to infect the murine skin. Briefly, bacteria were grown in tryptic soy broth (TSB) medium. Subsequently, cells were washed twice with sterile PBS (pH 7.4, 13,000 rpm for 1 min), and resuspended to a final concentration of 1×10^5 and 1×10^6 CFU/20 μL for A. baumannii and P. aeruginosa, respectively. Female CD-1 mice (six-weeks old) were anesthetized with isoflurane and had their backs shaved and a superficial linear skin abrasion was made with a needle in order to damage the stratum corneum and upper-layer of the epidermis. An aliquot of 20 μL containing the bacterial load in PBS was inoculated over each defined area containing the scratch with a pipette tip. […] Animals were euthanized and the area of scarified skin was excised two- and four-days post-infection, homogenized using a bead beater for 20 minutes (25 Hz), and 10-fold serially diluted for CFU quantification. […] Prior to each injection, mice were anesthetized with isoflurane and monitored (respiratory rate and pedal reflexes). Next, we monitored the formation of the abscess and euthanized the mice. The infected area was excised three-days post-infection, homogenized using a bead beater for 20 min (25 Hz), and 10-fold serially diluted for CFU quantification. […]

In test [3] the test system is A. baumannii ATCC19606. Description: Neutropenic thigh infection mouse model. It is filed as in vivo, Acinetobacter baumannii. To be noted: for anti-infective activity (FIG. 4E): alone, A. baumannii ATCC19606; for decrease of bacterial counts compared to untreated controls: mice, 25 μmol L^−1 intramuscular, three days post-treatment, A. baumannii.
Text: as §1
(§3) Next, the efficacy of the same encrypted peptides (SCUB1-SKE25 and SCUB3-MLP22) was assessed in monotherapy and in combination therapy in a murine thigh infection model (FIG. 4D). This preclinical model is sensitive, standardized, and widely used for assessing antibiotic translatability^43,44. Briefly, mice were rendered neutropenic by cyclophosphamide treatment prior to intramuscular infection with 10^6 cells mL^−1 of the bacterial pathogens P. aeruginosa and A. baumannii (FIG. 4E). Either a single dose of each encrypted peptide (at 25 μmol L^−1) or their combination (also at 25 μmol L^−1) were delivered to the infected site via intramuscular administration. Three days post-treatment, on average the peptides reduced the bacterial load of P. aeruginosa and A. baumannii by 4 and 2 orders of magnitude, respectively, compared to untreated mice.
as §2, with “epidermis.” for “epidermis. An aliquot of 20 μL containing the bacterial load in PBS was inoculated over each defined area containing the scratch with a pipette tip.”

The subject of another test is P. aeruginosa PAO1. Description: Neutropenic thigh infection mouse model. In kind it is in vivo, Pseudomonas aeruginosa. To be noted: for anti-infective activity (FIG. 4E): alone, P. aeruginosa PAO1; for decrease of bacterial counts compared to untreated controls: mice, 25 μmol L^−1 intramuscular, three days post-treatment, P. aeruginosa.
Text: as §1, §3
as §2, with “epidermis.” for “epidermis. An aliquot of 20 μL containing the bacterial load in PBS was inoculated over each defined area containing the scratch with a pipette tip.”

Ends that are not written are not given here.

Take SKEMFPRSFIKLLRSKVSRFLRPYK [SCUB1-SKE25]: the “activity against Gram-negative gut commensals” value in test [1] was “potent activity”. Also, in the test with A. baumannii ATCC19606 [2], the “anti-infective activity (FIG. 4B)” value is given as “inhibitory activity” and the “reduction of bacterial load / bacterial counts” value is given as 3 orders of magnitude. Also, in the test on A. baumannii ATCC19606 [3], the “anti-infective activity (FIG. 4E)” value is “reduced infections” and the “decrease of bacterial counts compared to untreated controls” value (shortened to “decrease of bacterial counts”) is given as 3 orders of magnitude. In the test on P. aeruginosa PAO1, the “anti-infective activity (FIG. 4E)” value was “reduced infections” and the “decrease of bacterial counts” value is given as 3 orders of magnitude.

Turning to MLPKSFIKLLRSKVSSFLRPYK [SCUB3-MLP22], in test [1], the “activity against Gram-negative gut commensals” value is “potent activity”. Moreover, in the test on A. baumannii ATCC19606 [2], the “anti-infective activity (FIG. 4B)” value was “inhibitory activity” and the “reduction of bacterial load / bacterial counts” value is on record as 3 orders of magnitude. In the test on A. baumannii ATCC19606 [3], the “anti-infective activity (FIG. 4E)” value is listed as “reduced infections” and the “decrease of bacterial counts” value was 3 orders of magnitude. In the test on P. aeruginosa PAO1, the “anti-infective activity (FIG. 4E)” value is “reduced infections” and the “decrease of bacterial counts” value was 3 orders of magnitude.
